Experimental data as given in PMC3460366, “Synthesis and Antibacterial Evaluation of a New Series of N-Alkyl-2-alkynyl/(E)-alkenyl-4-(1H)-quinolones” (Molecules, 2012).
pIC50: −log10 of the molar value. ≈ marks a conversion by molar mass, not a printed value. Where “and” joins values, the source holds several entries; their conditions need not be identical. Equal entries are not always repeated. Where two headings read alike, the source gives them in different places.

Columns and labels:
[1] = molecular target: T1, M. tuberculosis MurE ligase (Mycobacterium tuberculosis, UniProt P9WJL3); design: method as in PMID 21622974; details: positive control; read-out: IC50 Mtb MurE; cited from earlier work
T1 construct: made in house; host or cells: E. coli BL21(DE3)pLysS

M. phlei (ATCC 11758) = assay: Broth dilution MIC against M. phlei; type: cell-based; details: Mycolicibacterium phlei, ATCC11758, 72 h
[2] = test system: human diploid embryonic lung cell line MRC-5; assay: XTT cytotoxicity assay on MRC-5 cells; type: cell-based; details: for Metabolic active MRC-5 cells (%): XTT; for toxicity to MRC-5 cell line (in words): at / up to 100 µM
Experimental: In order to assess the cytotoxicity of these novel quinolone derivatives, the effect on the viability of a human lung fibroblast cell line MRC-5, was measured using XTT proliferation assay. […] In addition, the position of the triple bond in the side chain seems to have a significant influence on cytotoxcity which is increased in compounds with a triple bond more distant to the quinolone nucleus. This can be concluded by comparing results of 8l, 8n, 8p, and 8r having similar antimycobacterial activity on M. smegmatis but different cytotoxcity depending on triple bond position.
The cytotoxic activity of the synthetic compounds was determined by means of an XTT Cell Proliferation Kit II (Roche Diagnostics, Mannheim, Germany) using the human diploid embryonic lung cell line MRC-5 [11]. The quinolone derivatives were tested at concentrations of 100, 60, 30 and 10 µM in triplicate and the percentage of viable cells at each concentration was determined by comparing with the control.

S. aureus EMRSA-15 = assay: Broth dilution MIC against EMRSA-15; type: cell-based; details: Staphylococcus aureus, EMRSA15, 18 h
[3] = molecular target: T1, M. tuberculosis MurE ligase; assay: M. tuberculosis MurE inhibition assay (phosphate colorimetric detection); type: biochemical; details: tested at 1000, 300, 100 and 30 µM; IC50 from plot of percent inhibition vs. concentration; read-out: IC50 Mtb MurE
[4] = test system: M. smegmatis (ATCC 14468); assay: Microtiter broth dilution MIC against M. smegmatis (ATCC 14468); type: cell-based; details: Mycolicibacterium smegmatis, ATCC14468, 72 h, 37 °C, MTT
[5] = test system: M. bovis BCG (ATCC 35734); assay: microbe, parasite or virus in culture; type: cell-based; details: Mycobacterium tuberculosis variant bovis BCG, 336 h, read-out: MIC M. bovis BCG
S. aureus EMRSA-16 = assay: Broth dilution MIC against EMRSA-16; type: cell-based; details: Staphylococcus aureus, EMRSA16, 18 h
M. fortuitum (ATCC 6841) = assay: Broth dilution MIC against M. fortuitum; type: cell-based; details: Mycolicibacterium fortuitum, ATCC6841, 72 h
EMRSA-15 and -16 = assay: Broth dilution MIC against epidemic MRSA strains; type: cell-based, S. aureus; details: Staphylococcus aureus, range over both strains and the compounds named
M. smegmatis mc^2155 = assay: Broth dilution MIC against M. smegmatis mc^2155; type: cell-based; details: Mycolicibacterium smegmatis, 72 h

T1 sequence (P9WJL3 whole entry): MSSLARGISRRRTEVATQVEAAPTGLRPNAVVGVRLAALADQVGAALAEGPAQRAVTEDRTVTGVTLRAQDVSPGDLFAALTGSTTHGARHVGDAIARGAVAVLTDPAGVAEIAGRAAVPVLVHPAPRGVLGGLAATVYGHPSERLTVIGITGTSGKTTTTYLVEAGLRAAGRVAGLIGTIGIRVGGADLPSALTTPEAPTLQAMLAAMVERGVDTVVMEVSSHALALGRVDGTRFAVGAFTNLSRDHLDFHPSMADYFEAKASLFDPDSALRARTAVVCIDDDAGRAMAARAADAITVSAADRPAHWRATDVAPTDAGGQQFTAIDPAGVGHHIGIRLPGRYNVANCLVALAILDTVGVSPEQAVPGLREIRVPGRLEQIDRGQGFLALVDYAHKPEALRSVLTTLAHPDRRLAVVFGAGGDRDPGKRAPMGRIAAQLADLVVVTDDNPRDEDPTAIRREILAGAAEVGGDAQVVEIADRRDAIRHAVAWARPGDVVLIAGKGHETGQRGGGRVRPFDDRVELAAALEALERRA

CCCCCCCC/C=C\CCCCc1cc(=O)c2ccccc2n1C [1-Methyl-2-[(5Z)-tetradecenyl]-4(1H)-quinolone]
pIC50 [1]: 4.44

CCCCCCCCC#CCCc1cc(=O)c2ccccc2n1CCC [Compound 8l, 1-(n-Propyl)-2-(3'-dodecynyl)-4(1H)-quinolone]
MIC (M. phlei (ATCC 11758)): 4 µg/mL and 11.4 µM
Metabolic active MRC-5 cells (%) ([2]; 10 µM): 100 ± 0.31%
Metabolic active MRC-5 cells (%) ([2]; 30 µM): 99.1 ± 2.32%
Metabolic active MRC-5 cells (%) ([2]; 60 µM): 69.1 ± 8.04%
Metabolic active MRC-5 cells (%) ([2]; 100 µM): 9.0 ± 6.85%
MIC (S. aureus EMRSA-15): 2 µg/mL and 5.7 µM
pIC50 [3]: 3.58
MIC [4]: 1 µg/mL and 2.8 µM
MIC [5]: 25 µg/mL and 71.2 µM
MIC (S. aureus EMRSA-16): 8 µg/mL and 22.8 µM
MIC (M. fortuitum (ATCC 6841)): 2 µg/mL and 5.7 µM
MIC (EMRSA-15 and -16): 2 µg/mL to 8 µg/mL and 5.5 µM to 22.8 µM

CCCCCCCCC#CCCc1cc(=O)c2ccccc2n1CCCC [Compound 8m, 1-(n-Butyl)-2-(3'-dodecynyl)-4(1H)-quinolone]
MIC (M. phlei (ATCC 11758)): 4 µg/mL and 10.9 µM
Metabolic active MRC-5 cells (%) ([2]; 10 µM): 94.9 ± 3.18%
Metabolic active MRC-5 cells (%) ([2]; 30 µM): 89.7 ± 2.46%
Metabolic active MRC-5 cells (%) ([2]; 60 µM): 67.5 ± 3.19%
Metabolic active MRC-5 cells (%) ([2]; 100 µM): 0.4 ± 0.02%
MIC (S. aureus EMRSA-15): 2 µg/mL and 5.5 µM
pIC50 [3]: 3.63
MIC [4]: 2 µg/mL and 5.5 µM
MIC [5]: 25 µg/mL and 68.5 µM
MIC (S. aureus EMRSA-16): 4 µg/mL and 10.9 µM
MIC (M. smegmatis mc^2155): 2 µg/mL and 5.5 µM
MIC (M. fortuitum (ATCC 6841)): 2 µg/mL and 5.5 µM
MIC (EMRSA-15 and -16): 2 µg/mL to 8 µg/mL and 5.5 µM to 22.8 µM

CCCCCCCCCCC#Cc1cc(=O)c2ccccc2n1C [Compound 8n, 1-Methyl-2-(1'-dodecynyl)-4(1H)-quinolone]
MIC (M. phlei (ATCC 11758)): 1 µg/mL and 3.1 µM
Metabolic active MRC-5 cells (%) ([2]; 10 µM): 101 ± 0.85%
Metabolic active MRC-5 cells (%) ([2]; 30 µM): 100 ± 0.72%
Metabolic active MRC-5 cells (%) ([2]; 60 µM): 100 ± 0.81%
Metabolic active MRC-5 cells (%) ([2]; 100 µM): 100 ± 0.82%
toxicity to MRC-5 cell line (in words) [2]: devoid of toxicity
MIC (S. aureus EMRSA-15): 2 µg/mL and 6.2 µM
pIC50 [3]: 3.60
MIC [4]: 0.5 µg/mL (≈ 1.55 µM)
MIC [5]: 25 µg/mL and 77.4 µM
MIC (S. aureus EMRSA-16): 4 µg/mL and 12.4 µM
MIC (M. smegmatis mc^2155): 1 µg/mL and 3.1 µM
MIC (M. fortuitum (ATCC 6841)): 0.5 µg/mL and 1.5 µM
MIC (EMRSA-15 and -16): 2 µg/mL to 8 µg/mL and 5.5 µM to 22.8 µM

CCCCCCCCCCC#CCCc1cc(=O)c2ccccc2n1C [Compound 8o, 1-Methyl-2-(3'-tetradecynyl)-4(1H)-quinolone]
MIC (M. phlei (ATCC 11758)): 2 µg/mL and 5.7 µM
melting point: 43 to 45 °C
Metabolic active MRC-5 cells (%) ([2]; 10 µM): 100 ± 0.73%
Metabolic active MRC-5 cells (%) ([2]; 30 µM): 97.9 ± 0.88%
Metabolic active MRC-5 cells (%) ([2]; 60 µM): 95.8 ± 2.54%
Metabolic active MRC-5 cells (%) ([2]; 100 µM): 90.7 ± 3.48%
MIC (S. aureus EMRSA-15): 8 µg/mL and 22.8 µM
pIC50 [3]: 3.11
MIC [4]: 2 µg/mL and 5.7 µM
MIC [5]: 25 µg/mL and 71.2 µM
MIC (S. aureus EMRSA-16): 8 µg/mL and 22.8 µM
MIC (M. smegmatis mc^2155): 1 µg/mL and 2.8 µM
MIC (M. fortuitum (ATCC 6841)): 2 µg/mL and 5.7 µM

CCCCCCCCCCC#CCCc1cc(=O)c2ccccc2n1CCC [Compound 8q, 1-(n-Propyl)-2-(3'-tetradecynyl)-4(1H)-quinolone]
MIC (M. phlei (ATCC 11758)): 2 µg/mL and 5.3 µM
Metabolic active MRC-5 cells (%) ([2]; 10 µM): 92.7 ± 4.62%
Metabolic active MRC-5 cells (%) ([2]; 30 µM): 67.9 ± 2.65%
Metabolic active MRC-5 cells (%) ([2]; 60 µM): 19.8 ± 9.85%
Metabolic active MRC-5 cells (%) ([2]; 100 µM): 0.2 ± 0.09%
MIC (S. aureus EMRSA-15): 2 µg/mL and 5.3 µM
pIC50 [3]: 3.70
MIC [4]: 1 µg/mL and 2.6 µM
MIC [5]: 25 µg/mL and 66 µM
MIC (S. aureus EMRSA-16): 128 µg/mL and 338 µM
MIC (M. smegmatis mc^2155): 1 µg/mL and 2.6 µM
MIC (M. fortuitum (ATCC 6841)): 2 µg/mL and 5.3 µM

CCCCCCCCCCCCC#Cc1cc(=O)c2ccccc2n1C [Compound 8r, 1-Methyl-2-(1′-tetradecynyl)-4(1H)-quinolone]
MIC (M. phlei (ATCC 11758)): 2 µg/mL and 5.7 µM
melting point: 41 to 43 °C
Metabolic active MRC-5 cells (%) ([2]; 10 µM): 99.7 ± 2.03%
Metabolic active MRC-5 cells (%) ([2]; 30 µM): 98.1 ± 1.65%
Metabolic active MRC-5 cells (%) ([2]; 60 µM): 97.1 ± 1.69%
Metabolic active MRC-5 cells (%) ([2]; 100 µM): 95.7 ± 1.14%
toxicity to MRC-5 cell line (in words) [2]: devoid of toxicity
MIC (S. aureus EMRSA-15): 16 µg/mL and 45.6 µM
pIC50 [3]: 3.20
MIC [4]: 0.5 µg/mL (≈ 1.42 µM)
MIC [5]: 25 µg/mL and 71.2 µM
MIC (S. aureus EMRSA-16): 128 µg/mL and 365 µM
MIC (M. smegmatis mc^2155): 1 µg/mL and 2.8 µM
MIC (M. fortuitum (ATCC 6841)): 0.5 µg/mL and 1.5 µM
